{
  "source": "patent US12011475B2",
  "about": "“Polypeptide, polypeptide fragment, derivative thereof, and applications thereof” (CHENGDU HUITAI BIOMEDICINE CO., LTD., priority 2017, dated 2024)",
  "format_in_all_cases": "in vivo",
  "key": {"[1]": {"system": "rat with pulmonary fibrosis induced by bleomycin", "assay": "Rat weight, intratracheal instillation (Examples 15-16)", "conditions": "Day 14/Day 0, 8 mg/kg peptide + 4 mg/kg bleomycin simultaneously, Mean ± SEM", "experimental": "The rats were weighed before administration, intramuscular injection of Zoletil anesthetic solution, the dose was 65 mg/kg. After the rats entered the stage III anesthesia, the experimental rats were bond in the incline lateral decubitus. A size 12 gavage needle was inserted into rat trachea through oral cavity along the glottis to infuse the drug. The experimental animals were fed normally from the 1st day to the 14th day after intratracheal administration, and were weighed regularly every day without restriction of feed or drinking water.\n(§1) The rats in model group were intratracheally instilled with bleomycin (4 mg/kg); after anesthesia, the rats in treatment groups were intratracheally instilled with bleomycin (4 mg/kg) and corresponding therapeutic drug (8 mg/kg) simultaneously. The remaining implementation steps were the same as the description of Example 9.\nThe model and the administration route were referred to Example 15. The experimental rats in the control group, the model group, and the treatment groups described in Example 15 were weighted every day from the 1st day until the 14th day. When weighing, the “unstable weighing” of the electronic balance was selected, and an appropriate number of weighing and a degree of tolerable instability during the reading phase were set according to the instructions to weigh and record the readings. […]"}, "[2]": {"system": "rat with pulmonary fibrosis induced by bleomycin", "assay": "Masson staining score, intravenous injection (Example 24)", "conditions": "fibrosis pathology score, grade 0 to 8; intravenous injection 10 mg/kg once a day, 4th to 13th day after bleomycin 4 mg/kg; Mean ± SEM", "from_the_text": "(§2) The lung tissue of the rats of Example 9 was taken, fixed with 4% paraformaldehyde and embedded in paraffin. The wax block embedded the lung tissue was sectioned along the largest cross section. Pathological changes in lung tissue were observed using staining by Masson's trichrome stain (Masson). Pathological changes in lung tissue were observed under a light microscope (low magnification) at a magnification of 100 times (the result is shown in FIG. 15).\n(§3) According to the Modified Ashcroft scale scoring method, the degree of pulmonary fibrosis was evaluated according to the range of lesions and could be divided into 0 to 8 grades.\n(§4) The rats were weighed before administration, intramuscularly injected with 65 mg/kg Zoletil anesthetic solution. After the rats entered the stage III anesthesia, the experimental rats were fixated in the lateral decubitus. Gavage needle size 12 was inserted into rat trachea through oral cavity along the glottis to instill sterile saline or bleomycin (4 mg/kg) (Day 0). After the anesthesia, the rats in control group were intratracheally instilled with an equal volume of sterile saline, and the rats in model group and treatment groups were intratracheally instilled with bleomycin (4 mg/kg). On the 4th day, the sterile saline or peptide drug was injected through the tail vein once a day until the 13th day. […]"}, "[3]": {"system": "rat with pulmonary fibrosis induced by bleomycin", "assay": "Rat body weight, intravenous injection (Examples 20-21)", "conditions": "Day 14/Day 0; intravenous injection 10 mg/kg once a day, 4th to 13th day after bleomycin 4 mg/kg; Mean ± SEM", "from_the_text": "The model and the administration route were referred to Example 15. The experimental rats in the control group, the model group, and the treatment groups described in Example 15 were weighted every day from the 1st day until the 14th day. When weighing, the “unstable weighing” of the electronic balance was selected, and an appropriate number of weighing and a degree of tolerable instability during the reading phase were set according to the instructions to weigh and record the readings. The result is shown in the weight ratios in FIG. 2 (Day 14/Day 0).\nas §4, with “day. The rats were sacrificed on the 14th day for subsequent experiments.” for “day.”"}, "[4]": {"system": "rat with pulmonary fibrosis induced by bleomycin", "assay": "Masson staining score, intratracheal instillation (Example 19)", "conditions": "fibrosis pathology score, grade 0 to 8, 8 mg/kg peptide + 4 mg/kg bleomycin, Mean ± SEM", "from_the_text": "as §2, §3, §1\nThe lung tissue of the control group, the model group and the treatment groups of Example 15 was taken and subjected to Masson staining and scoring. The specific implementation steps were the same as the description of Example 13."}},
  "note": "Ends that are not written are not given here.",
  "data": [
    {"sequence": "YRVRFLAKENVTQDAEDN [N1]", "values": [
      {"measurement": "Weight Ratio", "setting": "[1]", "result": "1.05 ± 0.02"},
      {"measurement": "Masson Score", "setting": "[2]", "result": "3.85 ± 0.11"},
      {"measurement": "Weight Ratio", "setting": "[3]", "result": "1.05 ± 0.02"},
      {"measurement": "Masson Score", "setting": "[4]", "result": "3.93 ± 0.09"}
    ]}
  ]
}
